# Laboratory results reported in patent publication US10899737B2, “Piperazine carbamates and methods of making and using same” (Lundbeck La Jolla Research Center, Inc., priority 2016, dated 2021).
# Tests used:
# Type in all cases: biochemical
# ABHD6 [1] = target: T1, ABHD6 (Mus musculus, UniProt Q8R2Y0); test: In vitro competitive activity-based protein profiling (mouse), ABHD6; details: 1 μM inhibitor, mouse brain membrane fraction or cell lysates; read-out: ABHD6 % inh. 1 μM (mouse)
# T1 construct: Proteomes (mouse brain membrane fraction or cell lysates); from tissue; host or cells: mouse brain membrane fraction or cell lysates
# T1 sequence (Q8R2Y0 1-336): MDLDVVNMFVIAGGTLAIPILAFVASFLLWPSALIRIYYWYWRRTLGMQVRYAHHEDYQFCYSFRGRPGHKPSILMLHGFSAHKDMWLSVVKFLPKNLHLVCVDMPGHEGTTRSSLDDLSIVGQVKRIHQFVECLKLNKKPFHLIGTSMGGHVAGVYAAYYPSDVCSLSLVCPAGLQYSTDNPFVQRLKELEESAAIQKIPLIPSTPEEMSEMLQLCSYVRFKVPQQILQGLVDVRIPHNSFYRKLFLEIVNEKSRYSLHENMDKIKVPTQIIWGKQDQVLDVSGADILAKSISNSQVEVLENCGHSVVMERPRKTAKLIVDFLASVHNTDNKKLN
# Method: (§1) In Vitro Competitive Activity-Based Protein Profiling (Mouse).
# (§2) Proteomes (mouse brain membrane fraction or cell lysates) (50 μL, 1.0 mg/mL total protein concentration) were preincubated with varying concentrations of inhibitors at 37° C. After 30 min, FP-Rh (1.0 μL, 50 μM in DMSO) was added and the mixture was incubated for another 30 min at 37° C. Reactions were quenched with SDS loading buffer (50 μL-4×) and run on SDS-PAGE. Following gel imaging, serine hydrolase activity was determined by measuring fluorescent intensity of gel bands corresponding to MAGL and ABHD6 using ImageJ 1.49 k software. Data from this assay is shown in Table 1 (% inhibition at 1 μM).
# ABHD6 [2] = target: T2, ABHD6 (Homo sapiens, UniProt Q9BV23); test: In vitro competitive activity-based protein profiling (human), ABHD6; details: human PC3
# T2 construct: Proteomes (human prefrontal cortex or cell membrane fractions); endogenous in cells; human prefrontal cortex
# T2 sequence (Q9BV23 1-337): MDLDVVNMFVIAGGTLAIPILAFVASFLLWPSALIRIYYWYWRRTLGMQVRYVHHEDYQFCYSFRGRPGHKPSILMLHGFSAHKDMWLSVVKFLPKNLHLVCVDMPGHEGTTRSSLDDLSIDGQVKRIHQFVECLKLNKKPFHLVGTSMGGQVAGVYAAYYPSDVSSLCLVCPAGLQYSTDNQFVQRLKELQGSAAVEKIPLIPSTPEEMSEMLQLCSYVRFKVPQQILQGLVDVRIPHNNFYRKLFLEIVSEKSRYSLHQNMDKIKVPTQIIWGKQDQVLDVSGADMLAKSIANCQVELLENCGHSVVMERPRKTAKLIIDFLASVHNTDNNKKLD
# Method: (§3) In Vitro Competitive Activity-Based Protein Profiling (Human).
# (§4) Proteomes (human prefrontal cortex or cell membrane fractions) (50 μL, 1.0-2.0 mg/mL total protein concentration) were preincubated with varying concentrations of inhibitors at 37° C. After 30 min, FP-Rh or JW912 (1.0 μL, 50 μM in DMSO) was added and the mixture was incubated for another 30 min at room temperature. Reactions were quenched with SDS loading buffer (15 μL-4×) and run on SDS-PAGE. Following gel imaging, serine hydrolase activity was determined by measuring fluorescent intensity of gel bands corresponding to MAGL and ABHD6 using ImageJ 1.49 k software.
# MAGL [3] = target: T3, MAGL (Homo sapiens, UniProt Q99685); test: In vitro competitive activity-based protein profiling (human), MAGL; details: for inhibition at 1 µM: 1 μM inhibitor, human proteome, 30 min preincubation at 37° C, read-out: MAGL % inh. 1 μM (human); for IC50: human PC3
# T3 construct: Proteomes (human prefrontal cortex or cell membrane fractions); from tissue
# T3 sequence (Q99685 1-303): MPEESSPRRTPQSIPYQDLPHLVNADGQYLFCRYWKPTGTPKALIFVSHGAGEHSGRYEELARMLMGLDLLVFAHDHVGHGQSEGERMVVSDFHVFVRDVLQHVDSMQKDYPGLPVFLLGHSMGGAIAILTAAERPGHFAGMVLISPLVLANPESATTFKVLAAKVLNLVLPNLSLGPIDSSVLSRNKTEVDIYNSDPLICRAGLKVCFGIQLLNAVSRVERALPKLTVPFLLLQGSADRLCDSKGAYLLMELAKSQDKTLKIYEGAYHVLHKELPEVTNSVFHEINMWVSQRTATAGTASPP
# Method: as §3, §4
# MAGL [4] = target: T4, MAGL (Mus musculus, UniProt O35678); test: In vitro competitive activity-based protein profiling (mouse), MAGL; details: for inhibition at 1 µM: 1 μM inhibitor, mouse brain membrane fraction or cell lysates, read-out: MAGL % inh. 1 μM (mouse)
# T4 construct: Proteomes (mouse brain membrane fraction or cell lysates); from tissue; host or cells: mouse brain membrane fraction or cell lysates
# T4 sequence (O35678 1-303): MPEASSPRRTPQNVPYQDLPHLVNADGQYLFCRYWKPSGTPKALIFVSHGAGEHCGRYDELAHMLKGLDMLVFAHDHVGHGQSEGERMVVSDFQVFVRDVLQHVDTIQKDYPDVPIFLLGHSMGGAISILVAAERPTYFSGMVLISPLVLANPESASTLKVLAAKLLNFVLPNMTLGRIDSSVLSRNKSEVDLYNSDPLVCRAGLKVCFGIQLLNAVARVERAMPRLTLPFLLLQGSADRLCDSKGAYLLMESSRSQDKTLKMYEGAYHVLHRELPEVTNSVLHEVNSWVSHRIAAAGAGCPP
# Method: as §1, §2
smiles,measurement,setting,value
"O=C(O)CN1CCN(C(=O)c2cc(C(F)(F)F)ccc2CN2CCN(C(=O)OC(C(F)(F)F)C(F)(F)F)CC2)CC1 [Example 28, 2-(4-(2-((4-(((1,1,1,3,3,3-Hexafluoropropan-2-yl)oxy)carbonyl)piperazin-1-yl)methyl)-5-(trifluoromethyl)benzoyl)piperazin-1-yl)acetic Acid]",inhibition at 1 µM,ABHD6 [1],25 to 50%
same,IC50,ABHD6 [2],1 to 10 µM
same,inhibition at 1 µM,MAGL [3],≥ 75%
same,IC50,MAGL [3],0.1 to 1 µM
same,inhibition at 1 µM,MAGL [4],≥ 75%
"CC1(C(=O)O)CCN(c2cc(CN3CCN(C(=O)OC(C(F)(F)F)C(F)(F)F)CC3)cc(C(F)(F)F)c2)CC1 [Example 29, 1-(3-((4-(((1,1,1,3,3,3-Hexafluoropropan-2-yl)oxy)carbonyl)piperazin-1-yl)methyl)-5-(trifluoromethyl)phenyl)-4-methylpiperidine-4-carboxylic Acid]",inhibition at 1 µM,ABHD6 [1],≥ 75%
same,IC50,ABHD6 [2],≤ 0.1 µM
same,inhibition at 1 µM,MAGL [3],≥ 75%
same,IC50,MAGL [3],≤ 0.1 µM
same,inhibition at 1 µM,MAGL [4],≥ 75%
"O=C(OC(C(F)(F)F)C(F)(F)F)N1CCN(Cc2cc(Cl)cc(C3(C(=O)O)CCCC3)c2)CC1 [Example 32, 1-(3-Chloro-5-((4-(((1,1,1,3,3,3-hexafluoropropan-2-yl)oxy)carbonyl)piperazin-1-yl)methyl)phenyl)cyclopentane-1-carboxylic Acid]",inhibition at 1 µM,ABHD6 [1],≥ 75%
same,IC50,ABHD6 [2],0.1 to 1 µM
same,inhibition at 1 µM,MAGL [3],≥ 75%
same,IC50,MAGL [3],≤ 0.1 µM
same,inhibition at 1 µM,MAGL [4],≥ 75%
"O=C(O)CN1CCCC1C1CCN(c2cc(Cl)ccc2CN2CCN(C(=O)OC(C(F)(F)F)C(F)(F)F)CC2)CC1 (centres unmarked) [Example 34, 2-(2-(1-(5-Chloro-2-((4-(((1,1,1,3,3,3-hexafluoropropan-2-yl)oxy)carbonyl)piperazin-1-yl)methyl)phenyl)piperidin-4-yl)pyrrolidin-1-yl)acetic Acid]",inhibition at 1 µM,ABHD6 [1],50 to 75%
same,IC50,ABHD6 [2],1 to 10 µM
same,inhibition at 1 µM,MAGL [3],≥ 75%
same,IC50,MAGL [3],≤ 0.1 µM
same,inhibition at 1 µM,MAGL [4],≥ 75%
"O=C(OC(C(F)(F)F)C(F)(F)F)N1CCN(Cc2ccc(C(F)(F)F)c(C3(C(=O)O)CCCC3)c2)CC1 [Example 37, 1-(5-((4-(((1,1,1,3,3,3-hexafluoropropan-2-yl)oxy)carbonyl)piperazin-1-yl)methyl)-2-(trifluoromethyl)phenyl)cyclopentane-1-carboxylic acid]",inhibition at 1 µM,ABHD6 [1],≥ 75%
same,IC50,ABHD6 [2],0.1 to 1 µM
same,inhibition at 1 µM,MAGL [3],≥ 75%
same,IC50,MAGL [3],≤ 0.1 µM
same,inhibition at 1 µM,MAGL [4],≥ 75%
"O=C(O)C1CCN(Cc2cc(C(F)(F)F)ccc2CN2CCN(C(=O)OC(C(F)(F)F)C(F)(F)F)CC2)CC1 [Example 41, 1-(2-((4-(((1,1,1,3,3,3-hexafluoropropan-2-yl)oxy)carbonyl)piperazin-1-yl)methyl)-5-(trifluoromethyl)benzyl)piperidine-4-carboxylic acid]",inhibition at 1 µM,ABHD6 [1],0 to 25%
same,IC50,ABHD6 [2],1 to 10 µM
same,inhibition at 1 µM,MAGL [3],≥ 75%
same,IC50,MAGL [3],0.1 to 1 µM
same,inhibition at 1 µM,MAGL [4],≥ 75%
"O=C(O)CN1CC2(CCN(c3cc(Cl)ccc3CN3CCN(C(=O)OC(C(F)(F)F)C(F)(F)F)CC3)CC2)C1 [Example 47, 2-(7-(5-chloro-2-((4-(((1,1,1,3,3,3-hexafluoropropan-2-yl)oxy)carbonyl)piperazin-1-yl)methyl)phenyl)-2,7-diazaspiro[3.5]nonan-2-yl)acetic acid]",inhibition at 1 µM,ABHD6 [1],0 to 25%
same,IC50,ABHD6 [2],1 to 10 µM
same,inhibition at 1 µM,MAGL [3],≥ 75%
same,IC50,MAGL [3],≤ 0.1 µM
same,inhibition at 1 µM,MAGL [4],≥ 75%
same,IC50,MAGL [4]; mouse proteome,≤ 0.1 µM
"O=C(O)CN1CCC2(C1)CN(c1cc(Cl)ccc1CN1CCN(C(=O)OC(C(F)(F)F)C(F)(F)F)CC1)C2 [Example 48, 2-(2-(5-chloro-2-((4-(((1,1,1,3,3,3-hexafluoropropan-2-yl)oxy)carbonyl)piperazin-1-yl)methyl)phenyl)-2,6-diazaspiro[3.4]octan-6-yl)acetic acid]",inhibition at 1 µM,ABHD6 [1],0 to 25%
same,IC50,ABHD6 [2],1 to 10 µM
same,inhibition at 1 µM,MAGL [3],≥ 75%
same,IC50,MAGL [3],≤ 0.1 µM
same,inhibition at 1 µM,MAGL [4],≥ 75%
"O=C(O)CNC1CCN(c2cc(C(F)(F)F)ccc2CN2CCN(C(=O)OC(C(F)(F)F)C(F)(F)F)CC2)CC1 [Example 49, (1-(2-((4-(((1,1,1,3,3,3-hexafluoropropan-2-yl)oxy)carbonyl)piperazin-1-yl)methyl)-5-(trifluoromethyl)phenyl)piperidin-4-yl)glycine]",inhibition at 1 µM,ABHD6 [1],0 to 25%
same,IC50,ABHD6 [2],1 to 10 µM
same,inhibition at 1 µM,MAGL [3],≥ 75%
same,IC50,MAGL [3],≤ 0.1 µM
same,inhibition at 1 µM,MAGL [4],≥ 75%
"CCCC1(C(=O)O)CCN(c2cc(CN3CCN(C(=O)OC(C(F)(F)F)C(F)(F)F)CC3)cc(C(F)(F)F)c2)CC1 [Example 52, 1-(3-((4-(((1,1,1,3,3,3-hexafluoropropan-2-yl)oxy)carbonyl)piperazin-1-yl)methyl)-5-(trifluoromethyl)phenyl)-4-propylpiperidine-4-carboxylic acid]",inhibition at 1 µM,ABHD6 [1],≥ 75%
same,IC50,ABHD6 [2],0.1 to 1 µM
same,inhibition at 1 µM,MAGL [3],≥ 75%
same,IC50,MAGL [3],≤ 0.1 µM
same,inhibition at 1 µM,MAGL [4],≥ 75%
"CCC1(C(=O)O)CCN(c2cc(CN3CCN(C(=O)OC(C(F)(F)F)C(F)(F)F)CC3)cc(C(F)(F)F)c2)CC1 [Example 53, 4-ethyl-1-(3-((4-(((1,1,1,3,3,3-hexafluoropropan-2-yl)oxy)carbonyl)piperazin-1-yl)methyl)-5-(trifluoromethyl)phenyl)piperidine-4-carboxylic acid]",inhibition at 1 µM,ABHD6 [1],≥ 75%
same,IC50,ABHD6 [2],0.1 to 1 µM
same,inhibition at 1 µM,MAGL [3],≥ 75%
same,IC50,MAGL [3],≤ 0.1 µM
same,inhibition at 1 µM,MAGL [4],≥ 75%
"CC1(C(=O)O)CCCN(c2cc(CN3CCN(C(=O)OC(C(F)(F)F)C(F)(F)F)CC3)cc(C(F)(F)F)c2)C1 (centres unmarked) [Example 56, 1-(3-((4-(((1,1,1,3,3,3-hexafluoropropan-2-yl)oxy)carbonyl)piperazin-1-yl)methyl)-5-(trifluoromethyl)phenyl)-3-methylpiperidine-3-carboxylic acid]",inhibition at 1 µM,ABHD6 [1],0 to 25%
same,IC50,ABHD6 [2],≤ 0.1 µM
same,inhibition at 1 µM,MAGL [3],≥ 75%
same,IC50,MAGL [3],≤ 0.1 µM
same,inhibition at 1 µM,MAGL [4],≥ 75%
"O=C(O)CNCC1CCN(c2cc(C(F)(F)F)ccc2CN2CCN(C(=O)OC(C(F)(F)F)C(F)(F)F)CC2)CC1 [Example 61, ((1-(2-((4-(((1,1,1,3,3,3-hexafluoropropan-2-yl)oxy)carbonyl)piperazin-1-yl)methyl)-5-(trifluoromethyl)phenyl)piperidin-4-yl)methyl)glycine]",inhibition at 1 µM,ABHD6 [1],0 to 25%
same,IC50,ABHD6 [2],1 to 10 µM
same,inhibition at 1 µM,MAGL [3],≥ 75%
same,IC50,MAGL [3],≤ 0.1 µM
same,inhibition at 1 µM,MAGL [4],≥ 75%
"O=C(O)[C@@H]1CCCN(c2cc(CN3CCN(C(=O)OC(C(F)(F)F)C(F)(F)F)CC3)cc(C(F)(F)F)c2)C1 [Example 66, (R)-1-(3-((4-(((1,1,1,3,3,3-hexafluoropropan-2-yl)oxy)carbonyl)piperazin-1-yl)methyl)-5-(trifluoromethyl)phenyl)piperidine-3-carboxylic acid]",inhibition at 1 µM,ABHD6 [1],≥ 75%
same,IC50,ABHD6 [2],≤ 0.1 µM
same,inhibition at 1 µM,MAGL [3],≥ 75%
same,IC50,MAGL [3],≤ 0.1 µM
same,inhibition at 1 µM,MAGL [4],≥ 75%
